# Results from patent US20100092560A1, “REDUCED COENZYME Q10-CONTAINING PARTICULATE COMPOSITION AND METHOD FOR PRODUCING THE SAME” (KANEKA CORPORATION, priority 2007, published 2010).
# Assay: Preservation test: residual ratio of reduced coenzyme Q10 (oxidative stability, HPLC)
# Type: physicochemical
# Conditions: powder preserved for 30 days at 40° C. under shading conditions
# Description: The purity of reduced coenzyme Q10, the weight ratio (%) of oxidized coenzyme Q10 and reduced coenzyme Q10 and the like were determined by the following HPLC analysis. The HPLC analysis conditions are described below.
# column: SYMMETRY C18 (manufactured by Waters) 250 mm (length) 4.6 mm (inner diameter), mobile phase; C2H5OH/CH3OH=4/3(v/v), detection wavelength; 210 nm, flow rate; 1.0 ml/min, retention time of reduced coenzyme Q10; 9.1 min, retention time of oxidized coenzyme Q10; 13.3 min.
smiles,measurement,value
"COc1c(O)c(C)c(C/C=C(\C)CC/C=C(\C)CC/C=C(\C)CC/C=C(\C)CC/C=C(\C)CC/C=C(\C)CC/C=C(\C)CC/C=C(\C)CC/C=C(\C)CCC=C(C)C)c(O)c1OC [reduced coenzyme Q10 powder, reduced coenzyme Q10]",residual ratio of reduced coenzyme Q10,28%
